Laboratory results: patent US9845322B2 (Hoffmann-La Roche Inc., priority 2016, dated 2017)
pIC50: −log10 of the molar value. Read-outs that look alike come from different tables or passages of the source.

Test system: HBsAg secretion in HepG2.2.15 cells
Test: HBsAg assay (chemiluminescence immunoassay of secreted HBsAg in culture supernatant)
Type: cell-based, HBV
Conditions: concentration at which HBsAg secretion was reduced by 50% compared to the no drug control, read-out: IC50 (HBsAg assay)
Procedure: HepG2.2.15 cells (Acs et al. Proc Natl Acad Sci USA, 84, (1987), 4641-4), a constitutively HBV-expressing cell line were cultured in DMEM+Glutamax-I medium (Invitrogen, Carlsbad, Calif., USA), supplemented with 10% fetal bovine serum (Invitrogen) and G418 (Invitrogen) at a final concentration of 200 mg/L and maintained in 5% CO2 at 37° C.
HepG2.2.15 cells were seeded in duplicate into white, 96-well plates at 1.5×10^4 cells/well. The cells were treated with a three-fold serial dilution series of the compounds in DMSO. The final DMSO concentration in all wells was 1% and DMSO was used as no drug control.
The HBsAg chemiluminescence immunoassay (CLIA) kit (Autobio Diagnostics Co., Zhengzhou, China, Catalog number: CL0310-2) was used to measure the levels of secreted HBV antigens semi-quantitatively. For the detection 50 μL/well culture supernatant was used and HBsAg was quantified using HBsAg chemiluminescence immunoassay (CLIA) kit (Autobio Diagnostics Co., Zhengzhou, China, Catalog number: CL0310-2), 50 μL of the supernatant was transferred to the CLIA assay plate and 50 μL of enzyme conjugate reagent was added into each well. The plates were sealed and gently agitated for 1 hour at room temperature. The supernatant-enzyme-mixture was discarded and wells were washed 6 times with 300 μL of PBS. The residual liquid was removed by plating the CLIA plate […] on absorbent tissue paper. 25 μL of substrates A and B were added to each well. Luminance was measured using a luminometer (Mithras LB 940 Multimode Microplate Reader) after 10 minutes incubation. Dose-response curves were generated and the IC50 value was extrapolated by using the E-WorkBook Suite (ID Business Solutions Ltd., Guildford, UK). The IC50 was defined as the compound concentration (or conditioned media log dilution) at which HBsAg secretion was reduced by 50% compared to the no drug control.
The compounds according to formula I were tested for their capacity to inhibit HBsAg as described herein.

[1] = Hepatitis B virus, HepG2.2.15, HepG2.2.15 cells

Compound	pIC50 [1]	pIC50 (HepG2.2.15 cells)
Cc1cc(F)cc(N2CCc3nc(-c4ncccn4)ncc3C2C)c1 (centres unmarked) [Example 134, 6-(3-fluoro-5-methyl-phenyl)-5-methyl-2-pyrimidin-2-yl-7,8-dihydro-5H-pyrido[4,3-d]pyrimidine]	7.32	–
COCCCN(C)S(=O)(=O)c1cc(F)cc(N2CCc3nc(-c4ncccn4)ncc3C2C)c1 (centres unmarked) [Example 183, 3-fluoro-N-(3-methoxypropyl)-N-methyl-5-(5-methyl-2-pyrimidin-2-yl-7,8-dihydro-5H-pyrido[4,3-d]pyrimidin-6-yl)benzenesulfonamide]	6.08	–
CC1c2cnc(-c3ncccn3)nc2CCN1c1cc(F)c(F)c(OCCC2CNC2)c1 (centres unmarked) [Example 116, 6-[3-[2-(azetidin-3-yl)ethoxy]-4,5-difluoro-phenyl]-5-methyl-2-pyrimidin-2-yl-7,8-dihydro-5H-pyrido[4,3-d]pyrimidine]	6.04	–
COc1cc(N2CCc3nc(-c4ncccn4)ncc3C2C)cc(F)c1F (single isomer, unassigned; (+)) [Example 16, (+)-6-(3,4-difluoro-5-methoxy-phenyl)-5-methyl-2-pyrimidin-2-yl-7,8-dihydro-5H-pyrido[4,3-d]pyrimidine]	–	5.82
CC1c2cnc(-c3ncccn3)nc2CCN1c1cc(OCCCOCC(N)=O)cc(F)n1 (centres unmarked) [Example 163, 2-[3-[[2-fluoro-6-(5-methyl-2-pyrimidin-2-yl-7,8-dihydro-5H-pyrido[4,3-d]pyrimidin-6-yl)-4-pyridyl]oxy]propoxy]acetamide]	7.46	–
CC1c2cnc(-c3ncccn3)nc2CCN1c1cc(OCCCCCCC(=O)O)cc(F)n1 (single isomer, unassigned; (-)) [Example 155, (−)-7-[[2-fluoro-6-[5-methyl-2-pyrimidin-2-yl-7,8-dihydro-5H-pyrido[4,3-d]pyrimidin-6-yl]-4-pyridyl]oxy]heptanoic acid]	7.92	–
CC1c2cnc(-c3ncccn3)nc2CCN1c1cc(F)c(F)c(OCC(F)F)c1 (centres unmarked) [Example 70, 6-[3-(2,2-difluoroethoxy)-4,5-difluoro-phenyl]-5-methyl-2-pyrimidin-2-yl-7,8-dihydro-5H-pyrido[4,3-d]pyrimidine]	7.59	–
CC1c2cnc(-c3ccccn3)nc2CCN1c1cc(F)cc(N2CCCCC2)n1 (centres unmarked) [Example 219, 6-[4-fluoro-6-(1-piperidyl)-2-pyridyl]-5-methyl-2-(2-pyridyl)-7,8-dihydro-5H-pyrido[4,3-d]pyrimidine]	6.96	–
COc1cc(C)nc(N2CCc3nc(-c4ncccn4)ncc3C2C)c1 (centres unmarked) [Example 161, 6-(4-methoxy-6-methyl-2-pyridyl)-5-methyl-2-pyrimidin-2-yl-7,8-dihydro-5H-pyrido[4,3-d]pyrimidine]	7.02	–
CC1c2cnc(-c3ccccn3)nc2CCN1c1cc(OCCCCCCC(=O)O)cc(F)n1 (centres unmarked) [Example 179, 7-[[2-fluoro-6-[5-methyl-2-(2-pyridyl)-7,8-dihydro-5H-pyrido[4,3-d]pyrimidin-6-yl]-4-pyridyl]oxy]heptanoic acid]	7.54	–
CC1c2cnc(-c3ncccn3)nc2CCN1c1cc(F)c(F)c(OCCCN2CCN(C)CC2)c1 (centres unmarked) [Example 101, 6-[3,4-difluoro-5-[3-(4-methylpiperazin-1-yl)propoxy]phenyl]-5-methyl-2-pyrimidin-2-yl-7,8-dihydro-5H-pyrido[4,3-d]pyrimidine]	6.95	–
CC1c2cnc(-c3ccccn3)nc2CCN1c1cc(F)cc(N(C)C)n1 (centres unmarked) [Example 217, 4-fluoro-N,N-dimethyl-6-[5-methyl-2-(2-pyridyl)-7,8-dihydro-5H-pyrido[4,3-d]pyrimidin-6-yl]pyridin-2-amine]	7.55	–
CC1c2cnc(-c3ncccn3)nc2CCN1c1cc(F)c(F)c(OCCCCCCN)c1 (centres unmarked) [Example 59, 6-[2,3-difluoro-5-(5-methyl-2-pyrimidin-2-yl-7,8-dihydro-5H-pyrido[4,3-d]pyrimidin-6-yl)phenoxy]hexan-1-amine]	–	7.12
CC1c2cnc(-c3ncccn3)nc2CCN1c1cc(F)cc(NS(C)(=O)=O)n1 (centres unmarked) [Example 212, N-[4-fluoro-6-(5-methyl-2-pyrimidin-2-yl-7,8-dihydro-5H-pyrido[4,3-d]pyrimidin-6-yl)-2-pyridyl]methanesulfonamide]	6.08	–
CCCC1c2cnc(-c3ccccn3)nc2CCN1c1cc(F)c(F)c(OC)c1 (single isomer, unassigned; (-)) [Example 14, (−)-6-(3,4-difluoro-5-methoxy-phenyl)-5-propyl-2-(2-pyridyl)-7,8-dihydro-5H-pyrido[4,3-d]pyrimidine]	–	5.53
CC1c2cnc(-c3ncccn3)nc2CCN1c1cc(F)c(F)c(OCCC2CN(S(C)(=O)=O)C2)c1 (centres unmarked) [Example 118, 6-[3,4-difluoro-5-[2-(1-methylsulfonylazetidin-3-yl)ethoxy]phenyl]-5-methyl-2-pyrimidin-2-yl-7,8-dihydro-5H-pyrido[4,3-d]pyrimidine]	7.89	–
CC1c2cnc(-c3ncccn3)nc2CCN1c1cc(F)c(F)c(OCC(F)(F)F)c1 (centres unmarked) [Example 69, 6-[3,4-difluoro-5-(2,2,2-trifluoroethoxy)phenyl]-5-methyl-2-pyrimidin-2-yl-7,8-dihydro-5H-pyrido[4,3-d]pyrimidine]	7.48	–
CC1c2cnc(-c3ncccn3)nc2CCN1c1cc(OCCCCCCCC(N)=O)cc(F)n1 (centres unmarked) [Example 169, 8-[[2-fluoro-6-(5-methyl-2-pyrimidin-2-yl-7,8-dihydro-5H-pyrido[4,3-d]pyrimidin-6-yl)-4-pyridyl]oxy]octanamide]	7.74	–
CC1c2cnc(-c3ncccn3)nc2CCN1c1cc(F)c(F)c(OCCCCCCN)c1 (single isomer, unassigned; (-)) [Example 60, (−)-6-[2,3-difluoro-5-(5-methyl-2-pyrimidin-2-yl-7,8-dihydro-5H-pyrido[4,3-d]pyrimidin-6-yl)phenoxy]hexan-1-amine]	–	7.66
CC1c2cnc(-c3ncccn3)nc2CCN1c1cc(F)c(F)c(OCCCC(=O)O)c1 (centres unmarked) [Example 50, 4-[2,3-difluoro-5-(5-methyl-2-pyrimidin-2-yl-7,8-dihydro-5H-pyrido[4,3-d]pyrimidin-6-yl)phenoxy]butanoic acid]	5.95	–
CC1c2cnc(-c3ncccn3)nc2CCN1c1cc(N2CCNCC2)cc(F)n1 (centres unmarked) [Example 208, 6-(6-fluoro-4-piperazin-1-yl-2-pyridyl)-5-methyl-2-pyrimidin-2-yl-7,8-dihydro-5H-pyrido[4,3-d]pyrimidine]	6.73	–
CC1c2cnc(-c3ncccn3)nc2CCN1c1cc(F)c(F)c(OCCCN2CCNC(=O)C2)c1 (centres unmarked) [Example 107, 4-[3-[2,3-difluoro-5-(5-methyl-2-pyrimidin-2-yl-7,8-dihydro-5H-pyrido[4,3-d]pyrimidin-6-yl)phenoxy]propyl]piperazin-2-one]	6.77	–
CC1c2cnc(-c3ncccn3)nc2CCN1c1cc(F)c(F)c(OCC(N)=O)c1 (single isomer, unassigned; (+)) [Example 67, (+)-2-[2,3-difluoro-5-[5-methyl-2-pyrimidin-2-yl-7,8-dihydro-5H-pyrido[4,3-d]pyrimidin-6-yl]phenoxy]acetamide]	–	4.49
CC1c2cnc(-c3ncccn3)nc2CCN1c1cc(OCCCOCC(=O)O)cc(F)n1 (centres unmarked) [Example 162, 2-[3-[[2-fluoro-6-(5-methyl-2-pyrimidin-2-yl-7,8-dihydro-5H-pyrido[4,3-d]pyrimidin-6-yl)-4-pyridyl]oxy]propoxy]acetic acid]	5.75	–
CC1c2cnc(-c3ncccn3)nc2CCN1c1cc(OCCCCC(=O)O)cc(F)n1 (single isomer, unassigned; (-)) [Example 157, (−)-5-[[2-fluoro-6-[5-methyl-2-pyrimidin-2-yl-7,8-dihydro-5H-pyrido[4,3-d]pyrimidin-6-yl]-4-pyridyl]oxy]pentanoic acid]	7.33	–
CC1c2cnc(-c3ncccn3)nc2CCN1c1cc(F)c(F)c(OCCCN2CCOCC2=O)c1 (centres unmarked) [Example 80]	7.15	–
CC1c2cnc(-c3ncccn3)nc2CCN1c1cc(OCC2CN(S(C)(=O)=O)C2)cc(F)n1 (centres unmarked) [Example 159, 6-[6-fluoro-4-[(1-methylsulfonylazetidin-3-yl)methoxy]-2-pyridyl]-5-methyl-2-pyrimidin-2-yl-7,8-dihydro-5H-pyrido[4,3-d]pyrimidine]	7.25	–
CC1c2cnc(-c3ncccn3)nc2CCN1c1cc(F)c(F)c(OCCC2CCCO2)c1 (centres unmarked) [Example 105, 6-[3,4-difluoro-5-(2-tetrahydrofuran-2-ylethoxy)phenyl]-5-methyl-2-pyrimidin-2-yl-7,8-dihydro-5H-pyrido[4,3-d]pyrimidine]	7.64	–
COc1cc(N2CCc3nc(-c4ccccn4)ncc3C2C)cc(F)c1F (centres unmarked) [Example 5, 6-(3,4-difluoro-5-methoxy-phenyl)-5-methyl-2-(2-pyridyl)-7,8-dihydro-5H-pyrido[4,3-d]pyrimidine]	–	7.42
